In brackets after ≈: the same amount, converted by molar mass.
Columns and labels:
[1] = system: leukotriene (LT) C4 synthase (derived from the guinea-pig lung); assay: LTC4 synthase inhibitory activity (yield of LTC4 from LTA4 by RIA); assay type: biochemical
Protocol: (§1) The inhibitory activity of TKR1785-I against phospholipase A2 (derived from porcine pancreas) and leukotriene (LT) C4 synthase (derived from the guinea-pig lung), which are enzymes related to the immune system, was determined. Phospholipase A2 activity was assayed for a hexane extract under acidic conditions by determining the [^14 C]palmitic acid released from [^14 C]phosphatidylcholine. LTC4 synthase activity was assayed by determining the yield of LTC4 from LTA4 by the RIA method.

[2] = system: Mixed lymphocyte reaction (C57BL/6 responder cells, BALB/c stimulator cells); assay: Mixed lymphocyte reaction (MLR) inhibitory activity, 3H-thymidine uptake; assay type: cell-based, mice; conditions: mouse spleen cells, 3H-thymidine uptake vs sample-free group, read-out: 50% inhibitory concentration, MLR-inhibitory activity
Protocol: From C57BL/6 and BALB/c mice, the spleen was isolated and homogenized in a medium to provide a cell suspension. The cell suspension derived from C57BL/6 mice was passed through a nylon wool column to prepare a T cell-rich fraction (responder cells). The BALB/c-derived cell suspension was irradiated with X-rays to prepare stimulator cells. The responder cells and stimulator cells were mixed in a ratio of 1:1 and incubated in a CO2 incubator for 4 days. Following addition of 3H-thymidine, the cells were further culturen overnight. The cells were then recovered and the amount of ^3 H-thymidine uptake was determined. The samples (500, 125, 31.2, and 7.8 μg/ml solutions of dimethyl sulfoxide diluted with the medium) were respectively added in a proportion of 0.5% at mixing the responder cells with the stimulator cells to final concentrations of 25 to 0.039 μg/ml. The inhibitory activity was determined by comparison with the 3H-thymidine uptake in the sample-free group.

[3] = Solubility in various solvents; assay type: physicochemical
[4] = system: phospholipase A2 (derived from porcine pancreas); assay: Phospholipase A2 inhibitory activity ([14C]palmitic acid release from [14C]phosphatidylcholine); assay type: biochemical
Protocol: as §1

[5] = system: Cryptococcus neoformans TIMM0354; assay: Antifungal activity, liquid medium dilution method; assay type: cell-based; conditions: Cryptococcus neoformans TIMM0354, YNBG medium; for IC50: read-out: 50% inhibitory concentration (in parentheses); for MIC: read-out: Minimal inhibitory concentration
Protocol: (§2) The antifungal activity of the above substance TKR1785 against various microorganisms was investigated. Using the liquid medium dilution method, the concentration which caused substantially complete Inhibition of growth was determined as minimal inhibitory concentration (μg/ml). The concentration causing a partial inhibition of growth was also determined as 50% inhibitory concentration (μg/ml) and is shown in parentheses of table 2. In the table, YNBG represents a medium containing 0.67% of yeast nitrogen base (Difco) and 1% of glucose. BHI represents a medium containing 0.5% of brain heart infusion bouillon (Nissui Pharmaceutical). YNBG-Tween represents a medium containing 0.67% of yeast nitrogen base, 0.5% bactocasitone, 2% of glucose, and 1% of Tween 40.

[6] = system: Malassezia furfur TIMM2782; assay: Antifungal activity, liquid medium dilution method; assay type: cell-based; conditions: Malassezia furfur TIMM2782, YNBG-Tween medium; read-out: 50% inhibitory concentration (in parentheses)
Protocol: as §2

Candida kefir TIMM0301 = assay: Antifungal activity, liquid medium dilution method; assay type: cell-based; conditions: Candida kefir TIMM0301, YNBG medium; for MIC: read-out: Minimal inhibitory concentration
Protocol: as §2

[7] = system: Aspargillus fumigatus TIMM1776; assay: Antifungal activity, liquid medium dilution method; assay type: cell-based; conditions: Aspargillus fumigatus TIMM1776, BHI medium; for IC50: read-out: 50% inhibitory concentration (in parentheses); for MIC: read-out: Minimal inhibitory concentration
Protocol: as §2

[8] = system: Candida albicans TIMM0136; assay: Antifungal activity, liquid medium dilution method; assay type: cell-based; conditions: Candida albicans TIMM0136, YNBG medium; for IC50: partial inhibition of growth, read-out: 50% inhibitory concentration (in parentheses); for MIC: substantially complete inhibition of growth, read-out: Minimal inhibitory concentration
Protocol: as §2

ICR mice = assay: Toxicity in mice, intraperitoneal; assay type: in vivo; conditions: intraperitoneally, 50 mg/kg

| SMILES | Inhibition (%) ([1]; test concentration 30 μg/ml) | Inhibition (%) ([1]; test concentration 300 μg/ml) | IC50 [2] [µg/mL] | Solubility in chloroform and hexane ([3]; chloroform, hexane) | Solubility in methanol and water ([3]; methanol, water) | Inhibition (%) ([4]; Phospholipase A2, test concentration 10 μg/ml) | Inhibition (%) ([4]; Phospholipase A2, test concentration 100 μg/ml) | IC50 [5] [µg/mL] | MIC [5] [µg/mL] | IC50 [6] [µg/mL] | MIC (Candida kefir TIMM0301) [µg/mL] | IC50 [7] [µg/mL] | MIC [7] [µg/mL] | IC50 [8] [µg/mL] | MIC [8] [µg/mL] | Toxic response (ICR mice) | IC50 (Candida kefir TIMM0301; read-out: 50% inhibitory concentration (in parentheses)) [µg/mL] |
| --- | --- | --- | --- | --- | --- | --- | --- | --- | --- | --- | --- | --- | --- | --- | --- | --- | --- |
| CCCCCCCCCCCCCC(O)CC(O)C(N)CC(=O)N[C@H](C(=O)NC(CO)CO)C(C)C (single isomer, unassigned) [TKR1785-I] | 21 | 98 | 0.41 (≈ 0.792 µM) | only sparingly soluble in chloroform and hexane | soluble in methanol and water | 33 | 92 | 3.13 (≈ 6.05 µM) | 6.25 (≈ 12.1 µM) | 12.5 (≈ 24.1 µM) | 6.25 (≈ 12.1 µM) | 3.13 (≈ 6.05 µM) | 25 (≈ 48.3 µM) | 6.25 (≈ 12.1 µM) | 12.5 (≈ 24.1 µM) | no toxic response was found |  |
| CCCCCCCCCCCCCC(O)CC(O)C(N)CC(=O)N[C@H](C(=O)NC(CO)CO)[C@@H](C)CC (single isomer, unassigned) [TKR1785-II] |  |  |  |  |  |  |  | 6.25 (≈ 11.8 µM) | 12.5 (≈ 23.5 µM) |  | 12.5 (≈ 23.5 µM) | 25 (≈ 47 µM) | 50 (≈ 94 µM) | 6.25 (≈ 11.8 µM) | 12.5 (≈ 23.5 µM) | no toxic response was found | 6.25 (≈ 11.8 µM) |

From US6103767A, “Physiologically active substances TKR1785's, process for the preparation thereof, and microbe” (Takara Shuzo Co., Ltd., priority 1996, dated 2000)
